Experimental findings from patent US5493007A, “Platelet aggregation inhibitors having high specificity for GPIIBIIIA” (Genentech, Inc., priority 1994, dated 1996) are described below.

Several values for one entry are separate records, joined by “and”; a condition that tells them apart may be missing. Equal entries are not always repeated. *1 amine or outer side, *2 acyl side, *3 side chain or, on linkers, in order; H or OH if unused. Where a SMILES comes first, the peptide text is derived from it. Bridges are numbered along the chain shown (N, C = ends). [ ]: non-standard residue; d: D form. The star is where a group is joined. Ethylenediamine = C(CN[*:2])N[*:1]; Aad = N[C@@H](CCCC(=O)O)C(=O)O; Pen = CC(C)(S)[C@H](N)C(=O)O; NH(CH2)5NH2 = NCCCCCN*; NH(CH2)3NH2 = NCCCN* A value given as a limit tells only on which side of the number the result lay.

The target in assay [1] is T1, Vitronectin Receptor (αvβ3) (Homo sapiens, UniProt P05106+P06756).
T1 construct: Human vitronection receptor (VnR) is purified from human placenta; from tissue; host or cells: human placenta
Description: Human Vitronectin-Vitronectin Receptor (αvβ3) ELISA Assay. The class given is binding. As to conditions: purified human αvβ3, vitronectin-coated plates; read-out: ELISA IC50 Vitronectin VnR. The source says: Human vitronectin (Vn) is isolated from human plasma and purified by affinity chromatography by the method of Yatohgo et. al., (Cell Structure and Function 13:281-292 [1988]).
Human vitronection receptor (VnR) is purified from human placenta by the method of Pytela et al., (Methods Enzymol., 144:475 [1987]). Alternatively the αvβ3 receptor can be purified from some cell lines (e.g., human embryonic kidney 293 cells) transfected with DNA sequences for both the αv and β3 subunits. The subunits are purified by employing octylglucoside extraction followed by Con-A, Heparin-Sepharose, and S-300 Chromatography.
Anti-GP IIb IIIa monoclonal antibodies specific for human GP IIIa are prepared by the method of Newman et al. (Blood, 65:227-232 [1985]), or a similar procedure. This mouse Mab is specific for the β3 subunit of the vitronectin receptor.
Rabbit Fab 2 anti-mouse Fc fragment horse radish peroxidase conjugate (anti-MuFc HRP) is obtained from PelFreeze (cat. no. 715305-1).
Maxisorp microtiter plates are coated with 2 μg/ml human vitronectin dissolved in PBS ([…]) and stored overnight at 4° C. The plates are washed two times with PBS-0.05% Tween-20 (wash buffer) and blocked by incubating with about 150 μl/well of assay buffer (1%, BSA [RIA grade or better] in 50 mM Tris-HCl, 100 mM NaCl, 1 mM MgCl2, CaCl2, MnCl2 pH 7.4) for 60 minutes. Dilutions of standards are prepared and putative inhibitors (Table 3) are dissolved in assay buffer. The blocked plates are emptied and 25 μl/well of inhibitor or standard solution is added to each well. Twenty-five μl of a 30 μg/ml solution of purified αvβ3 in assay buffer is pipetted into the coated plate. The final concentration of receptor in the assay well is about 15 μg/ml. The plate is incubated on a shaker for 60 minutes. Meanwhile, for each microtite plate, 6 ml buffer solution containing 1.5 μg/ml of mouse monoclonal antibody specific for β3 is prepared. To this solution is added μl of the secondary antibody, which is anti-mouse-Fc-HRP antibody conjugate. For example, for one plate, prepare 6 ml of a 1.5 μg/ml mouse Mab solution to which is added 1 μl of anti-mouse-Fc-HRP antibody stock, (this represents a 1:6000 dilution of the antibody - HRP conjugate). This mixture is allowed to incubate during the receptor-inhibitor incubation. The assay plates are washed 4 times with PBS-Tween and 50 μl/well of the antibody mixture is then pipetted into the plate for a 60 minute incubation. The plate is washed 4 times and the color reaction is developed with 50 μl/well of 0.67 mg/ml o-phenyldiamine in PBS containing 0.012% H2 O2. Alternatively, 16 mM citric acid, 50 mM Na2 PO4 at pH 5.0 can be used as a substrate buffer. The reaction is stopped with 50 μl/well 1M H2 SO4. The plates are read at 492-405 nm and the data analyzed by four-parameter fit.
(An ELISA detects its analyte on a solid surface through an enzyme-linked reagent.)

Assay [2] addresses human platelet rich plasma (PRP) (Homo sapiens, UniProt P05106+P08514). Description: In Vitro Human Platelet Aggregation Assay. As to conditions: human PRP; read-out: Human Platelet Aggregation IC50. The class given is cell-based. In short, it runs like this:
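Citrated human PRP, diluted with PPP to about 300,000 platelets/μl from donors free of aspirin for two weeks, was preincubated with inhibitor or PBS for 5 minutes at 25° C. Aggregation was then triggered by collagen 1 μg/ml, U46619 100 ng/ml or ADP 17 μM and followed by light transmission.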

Assay [3] addresses Fibronectin Receptor (Homo sapiens, UniProt P05556+P08648). Description: Human Fibronectin-Fibronectin Receptor ELISA Assay. The settings on record: human placenta fibronectin receptor, fibronectin-coated plates; read-out: ELISA IC50 Fibronectin FnR. The class given is binding. On the set-up: octylglucoside (OG) extracted human placenta; from tissue; host or cells: human placenta. The protocol:
Fibronectin receptor is purified according to the procedures of Pytela et al., (Methods Enzymol. 144:475 […]). Briefly, fibronectin receptor is purified employing an Arg-Gly-Asp affinity chromatography from (100 mM) octylglucoside (OG) extracted human placenta. The OG extract is filtered over Sepharose 6B GRGDSPK column. The column is washed three times with three column volumes of Tris-buffered saline (TBS) TBS, 1 mM CaCl2, and 25 mM OG. The receptor is eluted with TBS, 20 mM EDTA, and 25 mM Octyl thioglucoside, and is stored in 1 mM CaCl2, 1 mM MgCl2, at -80° C.
Microtiter plates are coated with 110 μl human fibronectin (at 2 μg/ml) in TBS. Plates are washed three times with TBS containing 0.05% Tween 20. Test inhibitors are then added after washing in 10 microliter aliquots. The fibronectin receptor is added in 2-fold serial dilutions with TBS containing 20 mM octyl glucoside and 2 mM MnCl2. Plates are incubated three hours at room temperature, and washed with 200 μl TBS-Tween 20 buffer. 100 μl of affinity-purffied rabbit anti-human fibronectin receptor antibody is added to the wells and the plates are incubated two hours, washed twice with TBS-Tween and once with distilled water. Affinity-purified goat anti-rabbit IgG conjugated to horseradish peroxidase (100 μl) is added to each well followed by incubation for 60 minutes at room temperature. Plates are again washed twice with TBS-Tween and distilled water. 100 μl of substrate mixture (10 mg o-phenylenediamine in 25 ml 0.1M citrate-phosphate buffer, pH 5.0 6 μ30% H2 O2) is added to the plates and allowed to develop. The development process is stopped by adding 50 μl of 4N H2 SO4 to each well and read at […].

T1 sequence (P06756 31-889 limits assumed): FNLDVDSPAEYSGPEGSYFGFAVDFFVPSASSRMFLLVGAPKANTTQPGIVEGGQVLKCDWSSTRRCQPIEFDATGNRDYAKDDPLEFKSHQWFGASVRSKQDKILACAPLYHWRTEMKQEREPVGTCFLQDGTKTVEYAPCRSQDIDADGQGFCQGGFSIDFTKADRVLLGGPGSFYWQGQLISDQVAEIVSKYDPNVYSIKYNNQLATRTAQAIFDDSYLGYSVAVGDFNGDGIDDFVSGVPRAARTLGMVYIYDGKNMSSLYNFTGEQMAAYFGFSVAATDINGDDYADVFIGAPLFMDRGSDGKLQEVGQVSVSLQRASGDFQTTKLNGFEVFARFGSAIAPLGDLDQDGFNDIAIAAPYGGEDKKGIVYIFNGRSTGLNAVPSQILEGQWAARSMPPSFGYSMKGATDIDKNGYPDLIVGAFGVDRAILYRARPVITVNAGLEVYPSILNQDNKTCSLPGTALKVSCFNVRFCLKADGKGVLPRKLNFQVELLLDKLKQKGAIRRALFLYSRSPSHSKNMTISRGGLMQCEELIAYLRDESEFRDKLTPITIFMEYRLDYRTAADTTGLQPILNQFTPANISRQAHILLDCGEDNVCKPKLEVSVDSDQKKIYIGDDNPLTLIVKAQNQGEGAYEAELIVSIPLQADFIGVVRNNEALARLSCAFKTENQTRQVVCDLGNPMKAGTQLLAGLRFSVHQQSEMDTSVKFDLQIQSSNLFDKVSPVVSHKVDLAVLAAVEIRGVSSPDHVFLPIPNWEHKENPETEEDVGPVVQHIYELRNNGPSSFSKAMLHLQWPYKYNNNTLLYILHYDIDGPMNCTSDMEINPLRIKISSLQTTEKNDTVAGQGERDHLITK
T1 sequence (P06756 891-1048 partner limits assumed): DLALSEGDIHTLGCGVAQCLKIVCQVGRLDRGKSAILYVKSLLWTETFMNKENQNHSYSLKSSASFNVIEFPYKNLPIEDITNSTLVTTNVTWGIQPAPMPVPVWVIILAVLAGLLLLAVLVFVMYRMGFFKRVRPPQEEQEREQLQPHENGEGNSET
T1 sequence (P05106 27-788): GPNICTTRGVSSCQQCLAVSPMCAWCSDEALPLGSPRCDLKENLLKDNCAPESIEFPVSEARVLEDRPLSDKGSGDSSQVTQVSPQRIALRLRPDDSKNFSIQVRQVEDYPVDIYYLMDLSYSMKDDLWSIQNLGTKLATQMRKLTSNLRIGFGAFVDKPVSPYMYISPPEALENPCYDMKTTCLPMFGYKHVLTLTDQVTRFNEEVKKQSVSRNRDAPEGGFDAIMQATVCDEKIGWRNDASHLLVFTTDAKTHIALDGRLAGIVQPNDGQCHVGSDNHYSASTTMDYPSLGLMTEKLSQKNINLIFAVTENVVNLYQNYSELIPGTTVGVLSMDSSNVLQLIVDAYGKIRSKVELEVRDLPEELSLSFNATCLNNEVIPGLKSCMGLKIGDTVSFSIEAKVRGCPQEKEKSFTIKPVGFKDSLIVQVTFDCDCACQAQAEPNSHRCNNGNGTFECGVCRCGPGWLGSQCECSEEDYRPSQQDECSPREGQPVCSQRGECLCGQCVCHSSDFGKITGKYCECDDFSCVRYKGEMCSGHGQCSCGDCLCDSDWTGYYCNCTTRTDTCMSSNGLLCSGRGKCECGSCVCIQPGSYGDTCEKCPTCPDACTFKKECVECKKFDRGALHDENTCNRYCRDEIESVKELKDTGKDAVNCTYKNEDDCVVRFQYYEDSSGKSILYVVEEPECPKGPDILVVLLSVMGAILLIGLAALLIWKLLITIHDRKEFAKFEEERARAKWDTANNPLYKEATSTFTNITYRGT
human platelet rich plasma (PRP), sequence (P08514 32-1039): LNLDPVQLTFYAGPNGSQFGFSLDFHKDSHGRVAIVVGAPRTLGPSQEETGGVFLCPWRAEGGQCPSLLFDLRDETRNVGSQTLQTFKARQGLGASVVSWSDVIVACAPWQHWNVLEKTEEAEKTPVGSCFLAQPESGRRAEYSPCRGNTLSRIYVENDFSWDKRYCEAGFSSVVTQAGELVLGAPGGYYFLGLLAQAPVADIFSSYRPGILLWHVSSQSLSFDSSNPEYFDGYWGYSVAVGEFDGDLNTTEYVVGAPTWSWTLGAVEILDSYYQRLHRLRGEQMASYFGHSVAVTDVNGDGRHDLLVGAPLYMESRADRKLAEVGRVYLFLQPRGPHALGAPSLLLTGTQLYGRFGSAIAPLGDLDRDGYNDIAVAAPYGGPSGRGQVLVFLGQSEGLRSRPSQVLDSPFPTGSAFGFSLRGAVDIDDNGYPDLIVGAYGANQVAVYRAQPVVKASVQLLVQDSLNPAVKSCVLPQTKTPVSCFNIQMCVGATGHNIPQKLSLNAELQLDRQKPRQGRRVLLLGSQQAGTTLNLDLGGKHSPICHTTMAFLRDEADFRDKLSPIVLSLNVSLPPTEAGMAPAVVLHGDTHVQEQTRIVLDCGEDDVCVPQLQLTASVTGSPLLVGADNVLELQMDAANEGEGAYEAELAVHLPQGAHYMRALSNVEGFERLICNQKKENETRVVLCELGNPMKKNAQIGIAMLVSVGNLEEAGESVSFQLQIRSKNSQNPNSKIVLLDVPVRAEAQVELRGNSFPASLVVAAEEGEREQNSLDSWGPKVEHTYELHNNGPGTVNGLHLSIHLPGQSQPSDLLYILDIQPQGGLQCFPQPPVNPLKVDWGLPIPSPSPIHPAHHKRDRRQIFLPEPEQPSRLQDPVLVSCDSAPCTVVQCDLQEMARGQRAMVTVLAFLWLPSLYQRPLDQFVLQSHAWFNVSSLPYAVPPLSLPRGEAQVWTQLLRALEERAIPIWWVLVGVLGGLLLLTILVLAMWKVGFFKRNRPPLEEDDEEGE
human platelet rich plasma (PRP), sequence (P05106 27-788): as the sequence (P05106 27-788) above
Fibronectin Receptor, sequence (P08648 42-894 limits assumed): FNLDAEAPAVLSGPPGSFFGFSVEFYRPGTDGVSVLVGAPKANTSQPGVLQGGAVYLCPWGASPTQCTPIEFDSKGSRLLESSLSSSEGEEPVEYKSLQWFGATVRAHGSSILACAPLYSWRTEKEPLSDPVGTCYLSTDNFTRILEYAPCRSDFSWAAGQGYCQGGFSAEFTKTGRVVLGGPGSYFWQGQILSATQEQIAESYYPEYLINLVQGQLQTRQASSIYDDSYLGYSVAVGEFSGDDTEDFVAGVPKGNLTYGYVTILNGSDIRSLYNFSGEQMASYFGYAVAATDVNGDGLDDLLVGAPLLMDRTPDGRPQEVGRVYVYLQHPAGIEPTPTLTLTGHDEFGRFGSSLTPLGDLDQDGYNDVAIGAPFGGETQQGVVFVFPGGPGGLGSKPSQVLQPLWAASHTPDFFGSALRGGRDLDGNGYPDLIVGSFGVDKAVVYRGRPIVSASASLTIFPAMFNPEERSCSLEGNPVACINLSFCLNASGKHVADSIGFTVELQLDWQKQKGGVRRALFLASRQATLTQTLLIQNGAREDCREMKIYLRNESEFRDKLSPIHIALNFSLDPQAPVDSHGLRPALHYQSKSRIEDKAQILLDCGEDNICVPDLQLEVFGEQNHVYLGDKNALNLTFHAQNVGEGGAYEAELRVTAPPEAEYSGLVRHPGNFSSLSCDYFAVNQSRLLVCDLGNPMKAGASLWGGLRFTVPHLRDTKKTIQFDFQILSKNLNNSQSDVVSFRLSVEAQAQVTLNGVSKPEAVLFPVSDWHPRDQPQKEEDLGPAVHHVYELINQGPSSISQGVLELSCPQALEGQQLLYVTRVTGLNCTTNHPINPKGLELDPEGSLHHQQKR
Fibronectin Receptor, sequence (P08648 895-1049 partner limits assumed): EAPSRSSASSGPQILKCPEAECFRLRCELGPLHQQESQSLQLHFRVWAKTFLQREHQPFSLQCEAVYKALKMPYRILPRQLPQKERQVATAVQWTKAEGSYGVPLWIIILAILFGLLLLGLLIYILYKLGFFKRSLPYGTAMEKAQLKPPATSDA
Fibronectin Receptor, sequence (P05556 21-798): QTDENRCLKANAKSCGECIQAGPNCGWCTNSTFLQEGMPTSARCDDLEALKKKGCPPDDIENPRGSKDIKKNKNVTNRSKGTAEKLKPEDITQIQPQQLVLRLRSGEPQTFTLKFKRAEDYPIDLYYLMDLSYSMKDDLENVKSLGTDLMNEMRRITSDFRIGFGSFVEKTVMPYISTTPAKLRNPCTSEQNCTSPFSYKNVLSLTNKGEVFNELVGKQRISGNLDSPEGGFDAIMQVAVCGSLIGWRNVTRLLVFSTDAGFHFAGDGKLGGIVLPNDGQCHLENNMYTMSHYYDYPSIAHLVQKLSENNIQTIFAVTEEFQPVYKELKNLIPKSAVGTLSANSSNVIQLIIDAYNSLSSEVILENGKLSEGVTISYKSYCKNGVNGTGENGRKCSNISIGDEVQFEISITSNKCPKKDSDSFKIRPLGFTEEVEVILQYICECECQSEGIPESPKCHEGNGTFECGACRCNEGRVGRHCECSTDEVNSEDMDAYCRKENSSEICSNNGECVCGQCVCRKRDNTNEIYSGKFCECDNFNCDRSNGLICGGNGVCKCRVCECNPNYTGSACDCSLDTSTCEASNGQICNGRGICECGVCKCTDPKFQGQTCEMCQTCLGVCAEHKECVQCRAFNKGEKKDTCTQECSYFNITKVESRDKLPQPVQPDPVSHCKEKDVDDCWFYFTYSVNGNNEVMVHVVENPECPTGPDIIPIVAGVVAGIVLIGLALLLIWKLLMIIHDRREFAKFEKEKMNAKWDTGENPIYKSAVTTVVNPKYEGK

Broadly, the IC50 is the concentration that gives 50% inhibition. As for `N=C(N)NCCC[C@@H]1NC(=O)[C@@H](Cc2ccc(O)cc2)NC(=O)CSC[C@@H](C(=O)NCCCN)NC(=O)[C@H](CC(=O)O)NC(=O)CNC1=O` [8/22, cyclo-S-acetyl-dTyr--Arg--Gly--Asp--Cys--NH--X (X = propyl amine)] ({CH2CO}-[dY]RGDC-{NH(CH2)3NH2}; thioether N-5), the IC50 in assay [1] was 0.036 µM; in assay [2], 0.387 µM; in assay [3], 0.176 µM.
On to `N=C(N)NCCC[C@@H]1NC(=O)[C@@H](Cc2ccc(O)cc2)NC(=O)CSC[C@@H](C(=O)NCCN)NC(=O)[C@H](CC(=O)O)NC(=O)CNC1=O` [8/23, cyclo-S-acetyl-dTyr--Arg--Gly--Asp--Cys--NH--X (X = ethyl amine)] ({CH2CO}-[dY]RGDC-Ethylenediamine; thioether N-5), for which the IC50 in assay [1] was determined as 0.035 µM; in assay [2], 0.47 µM; in assay [3], 0.061 µM.
Turning to `N=C(N)NCCC[C@@H]1NC(=O)[C@@H](Cc2ccc(O)cc2)NC(=O)CSC[C@@H](C(=O)NCCCCCN)NC(=O)[C@H](CC(=O)O)NC(=O)CNC1=O` [8/13, cyclo-S-acetyl-dTyr--Arg--Gly--Asp--Cys--NH--X (X = pentylamine)] ({CH2CO}-[dY]RGDC-{NH(CH2)5NH2}; thioether N-5), the IC50 was 0.032 µM in assay [1], 0.59 µM in assay [2] and 0.473 µM in assay [3].
As for `N=C(N)NCCC[C@@H]1NC(=O)[C@@H](Cc2ccc(O)cc2)NC(=O)C(CCCCN)SC[C@@H](C(=O)O)NC(=O)[C@H](CC(=O)O)NC(=O)CNC1=O` (single isomer, unassigned) [9/11, cyclo-S-2-L-(6-aminocaproyl)-Lys--dTyr--Arg--Gly--Asp--Cys--OH], the IC50 is 0.0112 µM in assay [1], 3.18 µM in assay [2] and 0.16 µM in assay [3].
Take `N=C(N)NCCC[C@H](NC(=O)[C@@H]1CCCC(=O)N[C@H](Cc2ccc(O)cc2)C(=O)N[C@@H](CCCNC(=N)N)C(=O)NCC(=O)N[C@@H](CC(=O)O)C(=O)N1)C(N)=O` [10/19, cyclo(1-5)dTyr--Arg--Gly--Asp--L-α-aminoadipic acid-Arg--NH2] ([dY]RGD[Aad]R-NH2; lactam N-5): the IC50 is 0.032 µM in assay [1]; 0.18 µM and 0.205 µM in assay [2]; 0.745 µM in assay [3].
On to `N=C(N)NCCC[C@@H]1NC(=O)[C@@H](Cc2ccc(O)cc2)NC(=O)CSC[C@@H](C(=O)N[C@@H](CCCCN)C(N)=O)NC(=O)[C@H](CC(=O)O)NC(=O)CNC1=O` [7/3, cyclo-S-acetyl-dTyr--Arg--Gly--Asp--Cys--Lys--NH2] ({CH2CO}-[dY]RGDCK-NH2; thioether N-5), for which the figures for the IC50 in assay [1], in assay [2] and in assay [3] were 0.06 µM, 0.32 µM and 0.201 µM, respectively.
For `CC1(C)SCC(=O)N[C@H](Cc2ccc(O)cc2)C(=O)N[C@@H](CCCCN)C(=O)NCC(=O)N[C@@H](CC(=O)O)C(=O)N[C@@H]1C(=O)N[C@@H](CCCCN)C(N)=O` [7/17, cyclo-S-acetyl-dTyr--Lys--Gly--Asp--Pen--Lys--NH2] ({CH2CO}-[dY]KGD[Pen]K-NH2; thioether N-5), in that order: 100 µM, 0.09 µM and > 10 µM.
